Article PMC7377239, “Cardiovascular Effects of Polychlorinated Biphenyls and Their Major Metabolites” (Environmental Health Perspectives, 2020)
Read-outs that look alike come from different tables or passages of the source.

Tests used:
HUVECs = experiment: High-content imaging cytotoxicity in HUVECs, 24 h; type: cell-based, human; settings: Homo sapiens, HUVEC, 24 h, HUVECs; for viability at 0.01 µM / activity at 0.01 µM: concentration 0.01 µM; for viability at 0.01 µM / activity at 0.01 µM / viability at 0.1 µM / activity at 0.1 µM / viability at 1 µM / activity at 1 µM / viability at 10 µM / activity at 10 µM / viability at 100 µM / activity at 100 µM: 0.00 µM = 100.00; for viability at 0.1 µM / activity at 0.1 µM: concentration 0.10 µM; for viability at 1 µM / activity at 1 µM: concentration 1.00 µM; for viability at 10 µM / activity at 10 µM: concentration 10.00 µM; for viability at 100 µM / activity at 100 µM: concentration 100.00 µM; for minimal effective concentration: MAX 100.00
Procedure, shortened: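 Point-of-departure values come from four-parameter logistic fits of vehicle-normalized (0.5% DMSO) imaging readouts, cutoff one SD of vehicle means, 100μM where no concentration–response. Cells: HUVEC monolayers, passages 1–5, treated 24 h at 37°C, 5% CO2, then Hoechst 33342/MitoTracker Orange/calcein AM stained, imaged at 10×.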

[1] = test system: iCell endothelial cells (human iPSC-derived ECs); experiment: Tube formation (tubulogenesis) assay in iCell endothelial cells, 18 h; type: cell-based; settings: Homo sapiens, Endothelial cell, iPSC-EC; for activity at 0.1 µM: 0.10 µM; for minimal effective concentration: 100.00 = highest concentration tested
Procedure, shortened: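 Tube formation was measured by calcein AM imaging after overnight compound exposure (37°C, 0.5% DMSO vehicle) of human iPSC-derived ECs, 7,500/well, on reduced-growth-factor Geltrex in starvation medium. Vehicle-normalized data fitted to four-parameter logistic; POD set at one vehicle SD; without response, 100 μM taken as NOAEL.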

[2] = 24 hr, read-out: huvec.cyto.24hr
[3] = 24 hr, read-out: huvec.mito.24hr
[4] = 24 hr, read-out: huvec.mitoint.24hr
[5] = 24 hr, read-out: huvec.nma.24hr
[6] = 24 hrs, read-out: huvec.tc.24hrs
[7] = 0.00 µM = 100.00, read-out: endo.mtl.18hr
[8] = 0.00 µM = 100.00, read-out: endo.tlps.18hr
[9] = 0.00 µM = 100.00, read-out: endo.tta.18hr
[10] = 0.00 µM = 100.00, read-out: endo.ttl.18hr

## Clc1cc(Cl)c(-c2cc(Cl)c(Cl)cc2Cl)cc1Cl [PCB153]
HUVECs; [2]
  viability at 0.01 µM: 89.7%
  viability at 0.1 µM: 85%
  viability at 1 µM: 94.2%
  viability at 10 µM: 66.9%
  viability at 100 µM: 66.2%
HUVECs; [3]
  activity at 0.01 µM: 88.6%
  activity at 0.1 µM: 83.8%
  activity at 1 µM: 93.9%
  activity at 10 µM: 53.7%
  activity at 100 µM: 34.5%
HUVECs; [4]
  activity at 0.01 µM: 89.5%
  activity at 0.1 µM: 93%
  activity at 1 µM: 92.2%
  activity at 10 µM: 45.8%
  activity at 100 µM: 13.2%
HUVECs; [5]
  activity at 0.01 µM: 98.4%
  activity at 0.1 µM: 97%
  activity at 1 µM: 97.3%
  activity at 10 µM: 66.9%
  activity at 100 µM: 65.8%
HUVECs; 24 hr, read-out: huvec.cyto.24hr POD
  minimal effective concentration: 0.0171 µM
HUVECs; 24 hr, read-out: huvec.mito.24hr POD
  minimal effective concentration: 0.75 µM
HUVECs; 24 hr, read-out: huvec.mitoint.24hr POD
  minimal effective concentration: 0.83 µM
HUVECs; 24 hr, read-out: huvec.nma.24hr POD
  minimal effective concentration: 1.01 µM
HUVECs; [6]
  viability at 0.01 µM: 89.7%
  viability at 0.1 µM: 85%
  viability at 1 µM: 94.2%
  viability at 10 µM: 67%
  viability at 100 µM: 66.2%
HUVECs; 24 hrs, read-out: huvec.tc.24hrs POD
  minimal effective concentration: 0.0171 µM
[1]; [7]
  activity at 0.01 µM: 121%
  activity at 0.1 µM: 119%
  activity at 1 µM: 122%
  activity at 10 µM: 135%
  activity at 100 µM: 55.1%
[1]; [8]
  activity at 0.01 µM: 80.7%
  activity at 0.1 µM: 104%
  activity at 1 µM: 111%
  activity at 10 µM: 202%
  activity at 100 µM: 21.1%
[1]; [9]
  activity at 0.01 µM: 103%
  activity at 0.1 µM: 124%
  activity at 1 µM: 111%
  activity at 10 µM: 148%
  activity at 100 µM: 20.2%
[1]; [10]
  activity at 0.01 µM: 116%
  activity at 0.1 µM: 134%
  activity at 1 µM: 123%
  activity at 10 µM: 157%
  activity at 100 µM: 22.9%
[1]; read-out: endo.mtl.18hr POD
  minimal effective concentration: 0.007 µM
[1]; read-out: endo.tlps.18hr POD
  minimal effective concentration: 1.93 µM
[1]; read-out: endo.tta.18hr POD
  minimal effective concentration: 3.83 µM
[1]; read-out: endo.ttl.18hr POD
  minimal effective concentration: 0.58 µM
